Results published in the NIST ThermoML archive (doi:10.1016/j.jct.2016.12.012).
Where “and” joins values, the source holds several entries; their conditions need not be identical. Equal entries are not always repeated.

How the values were obtained:
[1] = for Normal melting temperature: DTA
[2] = Molar enthalpy of transition or fusion; conditions: DSC

COc1ccc(C(C)=O)cc1 [4'-methoxyacetophenone]
[1]
Conditions	vapor or sublimation pressure [kPa]
296.23 K, Crystal, Closed cell (Static) method	0.00059
298.19 K, Crystal, Closed cell (Static) method	0.00075
300.19 K, Crystal, Closed cell (Static) method	0.00096
302.13 K, Metastable liquid, Closed cell (Static) method	0.00143
302.18 K, Crystal, Closed cell (Static) method	0.00121
304.14 K, Metastable liquid, Closed cell (Static) method	0.00174
304.15 K, Crystal, Closed cell (Static) method	0.00153
306.09 K, Metastable liquid, Closed cell (Static) method	0.00209
306.12 K, Crystal, Closed cell (Static) method	0.00192
308.1 K, Crystal, Closed cell (Static) method	0.00239
308.12 K, Metastable liquid, Closed cell (Static) method	0.00251
310.08 K, Metastable liquid, Closed cell (Static) method	0.00301
312.06 K, Closed cell (Static) method, Liquid	0.0036
314.2 K, Closed cell (Static) method, Liquid	0.00436
316.08 K, Closed cell (Static) method, Liquid	0.00516
318.02 K, Closed cell (Static) method, Liquid	0.0061
320.04 K, Closed cell (Static) method, Liquid	0.00716
321.98 K, Closed cell (Static) method, Liquid	0.00847
324.01 K, Closed cell (Static) method, Liquid	0.01002
326 K, Closed cell (Static) method, Liquid	0.01174
327.92 K, Closed cell (Static) method, Liquid	0.01375
329.93 K, Closed cell (Static) method, Liquid	0.01614
331.9 K, Closed cell (Static) method, Liquid	0.0189
333.88 K, Closed cell (Static) method, Liquid	0.02202
335.86 K, Closed cell (Static) method, Liquid	0.02563
337.93 K, Closed cell (Static) method, Liquid	0.02998
339.82 K, Closed cell (Static) method, Liquid	0.03463
341.89 K, Closed cell (Static) method, Liquid	0.04012
343.72 K, Closed cell (Static) method, Liquid	0.04593
345.84 K, Closed cell (Static) method, Liquid	0.05323
347.69 K, Closed cell (Static) method, Liquid	0.06033
349.8 K, Closed cell (Static) method, Liquid	0.06953
351.63 K, Closed cell (Static) method, Liquid	0.07823
353.72 K, Closed cell (Static) method, Liquid	0.09003
355.73 K, Closed cell (Static) method, Liquid	0.1035

Crystal
Conditions	Molar enthalpy of transition or fusion [kcal/mol]	Normal melting temperature [°C]
[1]	–	37.2
[2]	4.02	–

CC(=O)Oc1cccc(C(C)=O)c1 [3-acetoxyacetophenone]
[1], Crystal 2, Calculated from knudsen effusion weight loss
Conditions	vapor or sublimation pressure
297.65 K	0.000123 kPa and 0.000124 kPa
299.16 K	0.000153 kPa and 0.000152 kPa
300.09 K	0.000169 kPa and 0.000167 kPa and 0.000168 kPa
301.23 K	0.000194 kPa and 0.000196 kPa
302.21 K	0.00023 kPa
303.25 K	0.000262 kPa and 0.000259 kPa
304.24 K	0.000293 kPa and 0.00029 kPa
305.23 K	0.000337 kPa and 0.00034 kPa and 0.000334 kPa
306.24 K	0.000387 kPa and 0.000383 kPa and 0.000389 kPa
307.26 K	0.000436 kPa and 0.000441 kPa and 0.000434 kPa

[1]
Conditions	vapor or sublimation pressure [kPa]
305.09 K, Metastable liquid, Closed cell (Static) method	0.00046
307.07 K, Metastable liquid, Closed cell (Static) method	0.00055
309.03 K, Metastable liquid, Closed cell (Static) method	0.00067
311.04 K, Metastable liquid, Closed cell (Static) method	0.00082
312.98 K, Metastable liquid, Closed cell (Static) method	0.001
315.01 K, Closed cell (Static) method, Liquid	0.00122
317.02 K, Closed cell (Static) method, Liquid	0.00147
319.06 K, Closed cell (Static) method, Liquid	0.00173
320.99 K, Closed cell (Static) method, Liquid	0.00206
323.04 K, Closed cell (Static) method, Liquid	0.00247
324.96 K, Closed cell (Static) method, Liquid	0.00291
326.99 K, Closed cell (Static) method, Liquid	0.00346
328.93 K, Closed cell (Static) method, Liquid	0.0041
330.94 K, Closed cell (Static) method, Liquid	0.00489
332.92 K, Closed cell (Static) method, Liquid	0.00565
334.91 K, Closed cell (Static) method, Liquid	0.00677
336.87 K, Closed cell (Static) method, Liquid	0.00798
338.84 K, Closed cell (Static) method, Liquid	0.00935
340.83 K, Closed cell (Static) method, Liquid	0.01079
342.8 K, Closed cell (Static) method, Liquid	0.01271
344.79 K, Closed cell (Static) method, Liquid	0.01475
346.92 K, Closed cell (Static) method, Liquid	0.01728
348.74 K, Closed cell (Static) method, Liquid	0.01981
350.69 K, Closed cell (Static) method, Liquid	0.02301
352.67 K, Closed cell (Static) method, Liquid	0.02636
354.64 K, Closed cell (Static) method, Liquid	0.03047
356.61 K, Closed cell (Static) method, Liquid	0.0348
358.61 K, Closed cell (Static) method, Liquid	0.03975
360.51 K, Closed cell (Static) method, Liquid	0.04544
362.54 K, Closed cell (Static) method, Liquid	0.05195
364.52 K, Closed cell (Static) method, Liquid	0.05948
366.49 K, Closed cell (Static) method, Liquid	0.06748
368.46 K, Closed cell (Static) method, Liquid	0.07663

Conditions	Molar enthalpy of transition or fusion, Crystal 1 [kcal/mol]	Molar enthalpy of transition or fusion, Crystal 2 [kcal/mol]	Normal melting temperature, Crystal 1 [°C]	Triple point temperature, Crystal 2, DSC [K]
[1]	–	–	43.1	308.1
[2]	5.54	0.239	–	–
